In patent US20170189504A1, “NOVEL PEPTIDES AND COMBINATION OF PEPTIDES FOR USE IN IMMUNOTHERAPY AGAINST VARIOUS CANCERS” (immatics biotechnologies GmbH, priority 2015, published 2017):

What was measured:
CD8+ T cells = assay: In vitro immunogenicity: T-cell priming with aAPCs loaded with peptide/MHC complexes and anti-CD28 antibody, pMHC multimer readout (Tables 19A, 19B); type: cell-based, human; conditions: in vitro immunogenicity of HLA class I peptides, pMHC multimer readout after priming of CD8+ T cells
Protocol: In an aspect, the peptides are pre-screened for immunogenicity before being included in the warehouse. By way of example, and not limitation, the immunogenicity of the peptides included in the warehouse is determined by a method comprising in vitro T-cell priming through repeated stimulations of CD8+ T cells from healthy donors with artificial antigen presenting cells loaded with peptide/MHC complexes and anti-CD28 antibody.
In order to obtain information regarding the immunogenicity of the TUMAPs of the present invention, the inventors performed investigations using an in vitro T-cell priming assay based on repeated stimulations of CD8+ T cells with artificial antigen presenting cells (aAPCs) loaded with peptide/MHC complexes and anti-CD28 antibody.
In order to perform in vitro stimulations by artificial antigen presenting cells loaded with peptide-MHC complex (pMHC) and anti-CD28 antibody, the inventors first isolated CD8+ T cells from fresh HLA-A*02 leukapheresis products via positive selection using CD8 microbeads (Miltenyi Biotec, Bergisch-Gladbach, Germany) of healthy donors obtained from the University clinics Mannheim, Germany, after informed consent.
PBMCs and isolated CD8+ lymphocytes were incubated in T-cell medium (TCM) until use consisting of RPMI-Glutamax (Invitrogen, Karlsruhe, Germany) supplemented with 10% heat inactivated human AB serum (PAN-Biotech, Aidenbach, Germany), 100 U/ml Penicillin/100 μg/ml Streptomycin (Cambrex, Cologne, Germany), 1 mM sodium pyruvate (CC Pro, Oberdorla, Germany), 20 μg/ml Gentamycin (Cambrex). 2.5 ng/ml IL7 (PromoCell, Heidelberg, Germany) and 10 U/ml IL-2 (Novartis Pharma, Nurnberg, Germany) were also added to the TCM at this step.
Generation of pMHC/anti-CD28 coated beads, T-cell stimulations and readout was performed in a highly defined in vitro system using four different pMHC molecules per stimulation condition and 8 different pMHC molecules per readout condition.
The purified co-stimulatory mouse IgG2a anti human CD28 Ab 9.3 (Jung et al., 1987) was chemically biotinylated using Sulfo-N-hydroxysuccinimidobiotin as recommended by the manufacturer (Perbio, Bonn, Germany). Beads used were 5.6 μm diameter streptavidin coated polystyrene particles (Bangs Laboratories, Illinois, USA).
pMHC used for positive and negative control stimulations were A*0201/MLA-001 (peptide […] (SEQ ID NO. 303) from modified Melan-A/MART-1) and A*0201/DDX5-001 ([…] from DDX5, SEQ ID NO. 304), respectively.
800.000 beads/200 μl were coated in 96-well plates in the presence of 4×12.5 ng different biotin-pMHC, washed and 600 ng biotin anti-CD28 were added subsequently in a volume of 200 μl. Stimulations were initiated in 96-well plates by co-incubating […] CD8+ T cells with 2×10^5 washed coated beads in 200 μl TCM supplemented with 5 ng/ml IL-12 (PromoCell) for 3 days at 37° C. Half of the medium was then exchanged by fresh TCM supplemented with 80 U/ml IL-2 and incubating was continued for 4 days at 37° C. This stimulation cycle was performed for a total of three times. For the pMHC multimer readout using 8 different pMHC molecules per condition, a two-dimensional combinatorial coding approach was used as previously described (Andersen et al., 2012) with minor modifications encompassing coupling to 5 different fluorochromes. Finally, multimeric analyses were performed by staining the cells with Live/dead near IR dye (Invitrogen, Karlsruhe, Germany), CD8-FITC antibody clone SK1 (BD, Heidelberg, Germany) and fluorescent pMHC multimers. For analysis, a BD LSRII SORP cytometer equipped with appropriate lasers and filters was used. Peptide specific cells were calculated as percentage of total CD8+ cells. Evaluation of multimeric analysis was done using the FlowJo software (Tree Star, Oreg., USA). In vitro priming of specific multimer+ CD8+ lymphocytes was detected by comparing to negative control stimulations.

HLA-A*24 = assay: MHC binding assay, UV-ligand exchange with β2m ELISA, HLA-A*24 (Table 21); set-up: species or system human; conditions: binding to HLA-A*24 ranged by peptide exchange yield (UV-ligand exchange, β2m ELISA)
Description: Candidate peptides for T cell based therapies according to the present invention were further tested for their MHC binding capacity (affinity). The individual peptide-MHC complexes were produced by UV-ligand exchange, where a UV-sensitive peptide is cleaved upon UV-irradiation, and exchanged with the peptide of interest as analyzed. Only peptide candidates that can effectively bind and stabilize the peptide-receptive MHC molecules prevent dissociation of the MHC complexes. To determine the yield of the exchange reaction, an ELISA was performed based on the detection of the light chain ((β2m) of stabilized MHC complexes. The assay was performed as generally described in Rodenko et al. (Rodenko et al., 2006).
96 well MAXISorp plates (NUNC) were coated over night with 2 ug/ml streptavidin in PBS at room temperature, washed 4× and blocked for 1 h at 37° C. in 2% BSA containing blocking buffer. Refolded HLA-A*02:01/MLA-001 monomers served as standards, covering the range of 15-500 ng/ml. Peptide-MHC monomers of the UV-exchange reaction were diluted 100 fold in blocking buffer. Samples were incubated for 1 h at 37° C., washed four times, incubated with 2 ug/ml HRP conjugated anti-β2m for 1 h at 37° C., washed again and detected with TMB solution that is stopped with […]. Absorption was measured at 450 nm. Candidate peptides that show a high exchange yield (preferably higher than 50%, most preferred higher than 75%) are generally preferred for a generation and production of antibodies or fragments thereof, and/or T cell receptors or fragments thereof, as they show sufficient avidity to the MHC molecules and prevent dissociation of the MHC complexes.

Row | Substance | Wells positive [%] (CD8+ T cells) | Peptide exchange (HLA-A*24)
1 | 197 (EYSLFPGQVVI; listed as Homo sapiens) [compound 197] | + (<20% = +) | +++ (50%-75% = +++)
2 | 176 (EYNQWFTKL; listed as Homo sapiens) [compound 176] | +++ (50%-69% = +++) | +++ (50%-75% = +++)
3 | 269 (YFIDSTNLKTHF; listed as Homo sapiens) [compound 269] | + (<20% = +) | +++ (50%-75% = +++)
4 | 165 (DYTTWTALL; listed as Homo sapiens) [compound 165] | + (<20% = +) | ++++ (≧75% = ++++)
5 | 160 (VYTLDIPVL; listed as Homo sapiens) [compound 160] | ++ (20%-49% = ++) | ++++ (≧75% = ++++)
6 | 200 (YYGPSLFLL; listed as Homo sapiens) [compound 200] | ++ (20%-49% = ++) | +++ (50%-75% = +++)
7 | 218 (YYKSTSSAF; listed as Homo sapiens) [compound 218] | + (<20% = +) | +++ (50%-75% = +++)
8 | 168 (KYQDILETI; listed as Homo sapiens) [compound 168] | ++ (20%-49% = ++) | ++++ (≧75% = ++++)
9 | 196 (LYIDRPLPYL; listed as Homo sapiens) [compound 196] | ++++ (≧70% = ++++) | +++ (50%-75% = +++)
10 | 281 (PYRLIFEKF; listed as Homo sapiens) [compound 281] | +++ (50%-69% = +++) | ++ (20%-49% = ++)
11 | 167 (NYINRILKL; listed as Homo sapiens) [compound 167] | + (<20% = +) | ++++ (≧75% = ++++)
12 | 159 (LYNKGFIYL; listed as Homo sapiens) [compound 159] | ++++ (≧70% = ++++) | ++++ (≧75% = ++++)
13 | 169 (AYTLIAPNI; listed as Homo sapiens) [compound 169] | +++ (50%-69% = +++) | +++ (50%-75% = +++)
14 | 222 (TFSVSSHLF; listed as Homo sapiens) [compound 222] | ++ (20%-49% = ++) | +++ (50%-75% = +++)
15 | 166 (YYVESGKLF; listed as Homo sapiens) [compound 166] | +++ (50%-69% = +++) | ++++ (≧75% = ++++)
16 | 163 (DYLKGLASF; listed as Homo sapiens) [compound 163] | + (<20% = +) | ++++ (≧75% = ++++)
17 | 162 (VFTRVSSFL; listed as Homo sapiens) [compound 162] | ++ (20%-49% = ++) | +++ (50%-75% = +++)
18 | 158 (HYSQELSLLYL; listed as Homo sapiens) [compound 158] | + (<20% = +) | ++++ (≧75% = ++++)
19 | 207 (AYVVFVSTL; listed as Homo sapiens) [compound 207] | + (<20% = +) | ++ (20%-49% = ++)
20 | 204 (TYELRYFQI; listed as Homo sapiens) [compound 204] | + (<20% = +) | ++++ (≧75% = ++++)
21 | 161 (IYLVSIPEL; listed as Homo sapiens) [compound 161] | ++ (20%-49% = ++) | ++++ (≧75% = ++++)
22 | 285 (HYPPVQVLF; listed as Homo sapiens) [compound 285] | + (<20% = +) | +++ (50%-75% = +++)
23 | 268 (QYLGQIQHI; listed as Homo sapiens) [compound 268] | + (<20% = +) | +++ (50%-75% = +++)
24 | 173 (IYSWILDHF; listed as Homo sapiens) [compound 173] | ++ (20%-49% = ++) | ++++ (≧75% = ++++)
25 | 199 (RYAEEVGIF; listed as Homo sapiens) [compound 199] | ++ (20%-49% = ++) | +++ (50%-75% = +++)
